The source of these data is ChEMBL document CHEMBL4622979, “Non-rigid Diarylmethyl Analogs of Baloxavir as Cap-Dependent Endonuclease Inhibitors of Influenza Viruses” (J Med Chem, 2020).

Data set [1] can be described thus: AUCinfinity in CD1 mouse plasma assessed as baloxavir acid level at 15 mg/kg, po administered as single dose measured up to 24 hrs by LC-MS/MS analysis. The format is ADME, organism-based. The arrangement: dose 15 mg/kg, route oral, time infinity. Particulars: in vivo.
Data set [2] can be described thus: AUCinfinity in CD1 mouse kidney assessed as baloxavir acid level at 15 mg/kg, po administered as single dose measured up to 24 hrs by LC-MS/MS analysis. Format: ADME, organism-based. Details: dose 15 mg/kg, time infinity, route oral. Particulars: in vivo.
Data set [3] in a line: MRTlast in CD1 mouse heart assessed as baloxavir acid level at 15 mg/kg, po administered as single dose measured up to 24 hrs by LC-MS/MS analysis. The format is ADME, organism-based. Particulars: in vivo.
A short description of data set [4]: Cmax in CD1 mouse trachea assessed as baloxavir acid level at 15 mg/kg, po administered as single dose measured after 4 hrs by LC-MS/MS analysis. Format: ADME, organism-based. Details: dose 15 mg/kg, route oral. Particulars: in vivo.
Data set [5] is described as follows: AUCinfinity in CD1 mouse small intestine assessed as baloxavir acid level at 15 mg/kg, po administered as single dose measured up to 24 hrs by LC-MS/MS analysis. The format is ADME, organism-based. Details: dose 15 mg/kg, route oral, time infinity. Conditions: in vivo.
Data set [6] is described as follows: Cmax in CD1 mouse spleen assessed as baloxavir acid level at 15 mg/kg, po administered as single dose measured up to 24 hrs by LC-MS/MS analysis. The format is ADME, organism-based. Details: dose 15 mg/kg, route oral. Particulars: in vivo.
Data set [7] in a line: Cmax in CD1 mouse muscle assessed as baloxavir acid level at 15 mg/kg, po administered as single dose measured up to 24 hrs by LC-MS/MS analysis. Format: ADME, organism-based, Muscle tissue. The arrangement: dose 15 mg/kg, route oral. Particulars: in vivo.
A short description of data set [8]: Cytotoxicity against human HepG2 cells assessed as reduction in cell viability measured after 24 hrs in presence of galactose by MTT assay. The format is cell-based. A general note: Tetrazolium dyes change colour on reduction, which living cells bring about.
The nature of data set [9]: Acute toxicity in CD1 mouse assessed as effect on kidney at 2000 mg/kg, po measured after 2 weeks by macroscopic analysis. Format: organism-based. Conditions: in vivo, 336 h.
Data set [10] is described as follows: Cmax in CD1 mouse plasma assessed as (12aR)-12-(Diphenylmethyl)-7-hydroxy-3,4,12,12a-tetrahydro-1H-[1,4]oxazino[3,4-c]pyrido[2,1-f ][1,2,4]triazine-6,8-dione level at 15 mg/kg, po administered as single dose by LC-MS/MS analysis. Format: ADME, organism-based. Details: dose 15 mg/kg, route oral. Particulars: in vivo.
A short description of data set [11]: AUCinfinity in CD1 mouse plasma assessed as (12aR)-12-(Diphenylmethyl)-7-hydroxy-3,4,12,12a-tetrahydro-1H-[1,4]oxazino[3,4-c]pyrido[2,1-f ][1,2,4]triazine-6,8-dione level at 15 mg/kg, po administered as single dose measured up to 24 hrs by LC-MS/MS analysis. The format is ADME, organism-based. Details: dose 15 mg/kg, time infinity, route oral. Conditions: in vivo.

The nature of data set [12]: AUCinfinity in CD1 mouse blood assessed as (12aR)-12-(Diphenylmethyl)-7-hydroxy-3,4,12,12a-tetrahydro-1H-[1,4]oxazino[3,4-c]pyrido[2,1-f ][1,2,4]triazine-6,8-dione level at 15 mg/kg, po administered as single dose measured up to 24 hrs by LC-MS/MS analysis. Format: ADME, organism-based. The arrangement: dose 15 mg/kg, time infinity, route oral. Particulars: in vivo.

A short description of data set [13]: Ratio of AUClast in CD1 mouse kidney to plasma assessed as (12aR)-12-(Diphenylmethyl)-7-hydroxy-3,4,12,12a-tetrahydro-1H-[1,4]oxazino[3,4-c]pyrido[2,1-f ][1,2,4]triazine-6,8-dione level at 15 mg/kg, po administered as single dose measured up to 24 hrs by LC-MS/MS analysis. Format: ADME, organism-based. Conditions: other tissue.
A short description of data set [14]: Tmax in CD1 mouse heart assessed as (12aR)-12-(Diphenylmethyl)-7-hydroxy-3,4,12,12a-tetrahydro-1H-[1,4]oxazino[3,4-c]pyrido[2,1-f ][1,2,4]triazine-6,8-dione level at 15 mg/kg, po administered as single dose measured up to 24 hrs by LC-MS/MS analysis. Format: ADME, organism-based. Particulars: in vivo.
A short description of data set [15]: AUCinfinity in CD1 mouse heart assessed as (12aR)-12-(Diphenylmethyl)-7-hydroxy-3,4,12,12a-tetrahydro-1H-[1,4]oxazino[3,4-c]pyrido[2,1-f ][1,2,4]triazine-6,8-dione level at 15 mg/kg, po administered as single dose measured up to 24 hrs by LC-MS/MS analysis. Format: ADME, organism-based. Details: dose 15 mg/kg, time infinity, route oral. Conditions: in vivo.

Data set [16] in a line: Elimination rate constant in CD1 mouse lung assessed as (12aR)-12-(Diphenylmethyl)-7-hydroxy-3,4,12,12a-tetrahydro-1H-[1,4]oxazino[3,4-c]pyrido[2,1-f ][1,2,4]triazine-6,8-dione level at 15 mg/kg, po administered as single dose measured up to 24 hrs by LC-MS/MS analysis. The format is ADME, organism-based. Particulars: in vivo.
Data set [17] is described as follows: Ratio of AUClast in CD1 mouse lung to plasma assessed as (12aR)-12-(Diphenylmethyl)-7-hydroxy-3,4,12,12a-tetrahydro-1H-[1,4]oxazino[3,4-c]pyrido[2,1-f ][1,2,4]triazine-6,8-dione level at 15 mg/kg, po administered as single dose measured up to 24 hrs by LC-MS/MS analysis. Format: ADME, organism-based. Conditions: other tissue.
Data set [18] can be described thus: Ratio of AUClast in CD1 mouse small intestine to plasma assessed as (12aR)-12-(Diphenylmethyl)-7-hydroxy-3,4,12,12a-tetrahydro-1H-[1,4]oxazino[3,4-c]pyrido[2,1-f ][1,2,4]triazine-6,8-dione level at 15 mg/kg, po administered as single dose measured up to 24 hrs by LC-MS/MS analysis. The format is ADME, organism-based. Conditions: other tissue.
Data set [19] can be described thus: Ratio of AUClast in CD1 mouse brain to plasma assessed as (12aR)-12-(Diphenylmethyl)-7-hydroxy-3,4,12,12a-tetrahydro-1H-[1,4]oxazino[3,4-c]pyrido[2,1-f ][1,2,4]triazine-6,8-dione level at 15 mg/kg, po administered as single dose measured up to 24 hrs by LC-MS/MS analysis. Format: ADME, organism-based.
Data set [20] can be described thus: Ratio of AUClast in CD1 mouse spleen to plasma assessed as (12aR)-12-(Diphenylmethyl)-7-hydroxy-3,4,12,12a-tetrahydro-1H-[1,4]oxazino[3,4-c]pyrido[2,1-f ][1,2,4]triazine-6,8-dione level at 15 mg/kg, po administered as single dose measured up to 24 hrs by LC-MS/MS analysis. Format: ADME, organism-based. Conditions: other tissue.
Data set [21] is described as follows: MRTlast in CD1 mouse muscle assessed as (12aR)-12-(Diphenylmethyl)-7-hydroxy-3,4,12,12a-tetrahydro-1H-[1,4]oxazino[3,4-c]pyrido[2,1-f ][1,2,4]triazine-6,8-dione level at 15 mg/kg, po administered as single dose measured up to 24 hrs by LC-MS/MS analysis. The format is ADME, organism-based, Muscle tissue. Conditions: in vivo.

A word on the Cmax: it is the maximum level reached in the sampled fluid or tissue. Broadly, the CC50 is the concentration at which the toxic effect on the cells reaches its halfway point. Usually Tmax stands for the time at which the peak concentration occurs.

Molecules are shown by their SMILES.

On to `COC(=O)OCOc1c2n(ccc1=O)N([C@@H]1c3ccccc3SCc3c1ccc(F)c3F)[C@@H]1COCCN1C2=O` [BALOXAVIR MARBOXIL], for which the AUC in data set [1] was 558 ng·h/mL; in data set [2] it was 21287 ng·h/g; in data set [5], 106028 ng·h/g. In addition, the MRTlast in data set [3] amounted to 4.84 h. The Cmax in data set [4] came to 277 ng/g; in data set [6] it was 388 ng/g; in [7] it was 916 ng/g.
For the compound `COC(=O)OCOc1c2n(ccc1=O)N(C(c1ccccc1)c1ccccc1)[C@@H]1COCCN1C2=O`, in data set [8], the CC50 at 24 h was determined as 57 µM. Further, the Activity result in data set [9] was “Non-Toxic”. The Cmax in data set [10] was 875 ng/mL. The AUC amounted to 3385 ng·h/mL in [11], 2861 ng·h/g in [12] and 11444 ng·h/g in data set [15]. For the same compound, the “Ratio AUC” value came to 5.5 in data set [13]; 2.53 in data set [17]; 13.3 in [18]; 0.19 in [19]; 1.38 in [20]. For the same compound, the time of peak concentration (Tmax) in [14] is 0.5 h. For the same compound, the Kel in [16] worked out at 0.44 h⁻¹. The MRTlast in data set [21] is 1.86 h.
